These molecules were tested against unphosphorylated-BTK kinase domain (UP-BTK), GST-tagged human BTK (389-659aa) (Homo sapiens (Human), UniProt Q06187) (assay: BTK Kinase Lanthascreen Binding Assay). Conditions: compound, 50 nM Tracer 236, 2 nM anti-GST antibody, 60 minutes; pIC50 = negative log of the IC50 in molar.
Procedure: BTK Kinase Lanthascreen Binding Assay:
A BTK kinase lanthascreen binding assay monitors compound binding to unphosphorylated-BTK kinase domain (UP-BTK), by competing with a fluorescent labeled tracer. […] Data were analyzed using Xlfit™ version 5.3 from ID Business Solutions (Guildford), Microsoft Excel add-in. pIC50 refers to the negative log of the IC50 in molar.

Sequence of unphosphorylated-BTK kinase domain (UP-BTK), GST-tagged human BTK (389-659aa) (Q06187 389-659): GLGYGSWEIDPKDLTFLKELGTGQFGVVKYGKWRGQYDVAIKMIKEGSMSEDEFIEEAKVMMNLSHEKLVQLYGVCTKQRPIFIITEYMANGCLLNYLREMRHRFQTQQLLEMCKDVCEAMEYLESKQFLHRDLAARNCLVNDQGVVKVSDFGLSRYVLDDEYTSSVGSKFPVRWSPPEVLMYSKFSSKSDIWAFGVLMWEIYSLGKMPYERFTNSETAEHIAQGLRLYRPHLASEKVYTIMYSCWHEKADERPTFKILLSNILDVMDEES

Structure (SMILES)	BTK_I_binding pIC50
CCC(=O)N[C@H]1CC[C@@H](NC(=O)c2sc3nccc4c3c2NC(=O)N4c2ccc(Oc3ccccc3)cc2C)CC1 (single isomer, unassigned) [Example 93, 5-(*R)-(2-Methyl-4-phenoxyphenyl)-4-oxo-N-((1S,4S)-4-propionamidocyclohexyl)-4,5-dihydro-3H-1-thia-3,5,8-triazaacenaphthylene-2-carboxamide]	6.99
CC(=O)N[C@H]1CC[C@@H](NC(=O)c2sc3nccc4c3c2NC(=O)N4c2ccc(Oc3ccccc3)cc2C)CC1 (single isomer, unassigned) [Example 94, N-((1S,4S)-4-Acetamidocyclohexyl)-5-(*S)-(2-methyl-4-phenoxyphenyl)-4-oxo-4,5-dihydro-3H-1-thia-3,5,8-triazaacenaphthylene-2-carboxamide]	7.59
CC(=O)N[C@H]1CC[C@@H](NC(=O)c2sc3nccc4c3c2NC(=O)N4c2ccc(Oc3ccccc3)cc2C)CC1 (single isomer, unassigned) [Example 95, N-((1S,4S)-4-Acetamidocyclohexyl)-5-(*R)-(2-methyl-4-phenoxyphenyl)-4-oxo-4,5-dihydro-3H-1-thia-3,5,8-triazaacenaphthylene-2-carboxamide]	6.14
C=CC(=O)N[C@@H]1CC[C@H](NC(=O)c2sc3nccc4c3c2NC(=O)N4c2ccc(Oc3ccccc3)cc2C)C1 (single isomer, unassigned) [Example 101, N-((1S,3R)-3-Acrylamidocyclopentyl)-5-(*S)-(2-methyl-4-phenoxyphenyl)-4-oxo-4,5-dihydro-3H-1-thia-3,5,8-triazaacenaphthylene-2-carboxamide]	7.95
Cc1cc(Oc2ccccc2)ccc1N1C(=O)Nc2c(C(=O)N[C@H]3CC[C@@H](NC(=O)CN(C)C)C3)sc3nccc1c23 (single isomer, unassigned) [Example 102, N-((1S,3R)-3-(2-(dimethylamino)acetamido)cyclopentyl)-5-(*S)-(2-methyl-4-phenoxyphenyl)-4-oxo-4,5-dihydro-3H-1-thia-3,5,8-triazaacenaphthylene-2-carboxamide]	7.50
CNCC(=O)N[C@@H]1CC[C@H](NC(=O)c2sc3nccc4c3c2NC(=O)N4c2ccc(Oc3ccccc3)cc2C)C1 (single isomer, unassigned) [Example 103, 5-(*S)-(2-Methyl-4-phenoxyphenyl)-N-((1S,3R)-3-(2-(methylamino)acetamido)cyclopentyl)-4-oxo-4,5-dihydro-3H-1-thia-3,5,8-triazaacenaphthylene-2-carboxamide]	7.40
C=CC(=O)N[C@@H]1CCC[C@H]1NC(=O)c1sc2nccc3c2c1NC(=O)N3c1ccc(Oc2ccccc2)cc1C (single isomer, unassigned) [Example 105, N-((1R,2R)-2-Acrylamidocyclopentyl)-5-(*S)-(2-methyl-4-phenoxyphenyl)-4-oxo-4,5-dihydro-3H-1-thia-3,5,8-triazaacenaphthylene-2-carboxamide]	8.11
C=CC(=O)N[C@H]1CCC[C@H]1NC(=O)c1sc2nccc3c2c1NC(=O)N3c1ccc(Oc2ccccc2)cc1C (single isomer, unassigned) [Example 107, N-((1R,2S)-2-Acrylamidocyclopentyl)-5-(*S)-(2-methyl-4-phenoxyphenyl)-4-oxo-4,5-dihydro-3H-1-thia-3,5,8-triazaacenaphthylene-2-carboxamide]	8.25
C=CC(=O)N[C@H]1CCCC[C@H]1NC(=O)c1sc2nccc3c2c1NC(=O)N3c1ccc(Oc2ccccc2)cc1C (single isomer, unassigned) [Example 108, N-((1R,2S)-2-Acrylamidocyclohexyl)-5-(*S)-(2-methyl-4-phenoxyphenyl)-4-oxo-4,5-dihydro-3H-1-thia-3,5,8-triazaacenaphthylene-2-carboxamide]	7.56
Cc1cc(Oc2ccccc2)ccc1N1C(=O)Nc2c(C(=O)N[C@@H]3CCC[C@H]3NC(=O)CN(C)C)sc3nccc1c23 (single isomer, unassigned) [Example 111, N-((1R,2R)-2-(2-(Dimethylamino)acetamido)cyclopentyl)-5-(*S)-(2-methyl-4-phenoxyphenyl)-4-oxo-4,5-dihydro-3H-1-thia-3,5,8-triazaacenaphthylene-2-carboxamide]	7.68
CNCC(=O)N[C@@H]1CCC[C@H]1NC(=O)c1sc2nccc3c2c1NC(=O)N3c1ccc(Oc2ccccc2)cc1C (single isomer, unassigned) [Example 112, 5-(*S)-(2-Methyl-4-phenoxyphenyl)-N-((1R,2R)-2-(2-(methylamino)acetamido)cyclopentyl)-4-oxo-4,5-dihydro-3H-1-thia-3,5,8-triazaacenaphthylene-2-carboxamide]	8.04
Cc1cc(Oc2ccccc2)ccc1N1C(=O)Nc2c(C(=O)N[C@@H]3CCC[C@H]3NC(=O)CN)sc3nccc1c23 (single isomer, unassigned) [Example 113, N-((1R,2R)-2-(2-Aminoacetamido)cyclopentyl)-5-(*S)-(2-methyl-4-phenoxyphenyl)-4-oxo-4,5-dihydro-3H-1-thia-3,5,8-triazaacenaphthylene-2-carboxamide]	7.88
C=CC(=O)N[C@@H]1CCC[C@@H]1NC(=O)c1sc2nccc3c2c1NC(=O)N3c1ccc(Oc2ccccc2)cc1C (single isomer, unassigned) [Example 114, N-((1S,2R)-2-Acrylamidocyclopentyl)-5-(*S)-(2-methyl-4-phenoxyphenyl)-4-oxo-4,5-dihydro-3H-1-thia-3,5,8-triazaacenaphthylene-2-carboxamide]	6.81
Cc1cc(Oc2ccccc2)ccc1N1C(=O)Nc2c(C(=O)N[C@@H]3CCC[C@@H]3N)sc3nccc1c23 (single isomer, unassigned) [Example 115, N-((1R,2S)-2-Aminocyclopentyl)-5-(*S)-(2-methyl-4-phenoxyphenyl)-4-oxo-4,5-dihydro-3H-1-thia-3,5,8-triazaacenaphthylene-2-carboxamide]	7.57
C=CC(=O)N[C@H]1CCC[C@@H]1NC(=O)c1sc2nccc3c2c1NC(=O)N3c1ccc(Oc2ccccc2)cc1C (single isomer, unassigned) [Example 116, N-((1S,2S)-2-Acrylamidocyclopentyl)-5-(*S)-(2-methyl-4-phenoxyphenyl)-4-oxo-4,5-dihydro-3H-1-thia-3,5,8-triazaacenaphthylene-2-carboxamide]	7.30
Cc1cc(Oc2ccccc2)ccc1N1C(=O)Nc2c(C(=O)N[C@@H]3CCC[C@H]3N)sc3nccc1c23 (single isomer, unassigned) [Example 120, N-((1R,2R)-2-Aminocyclopentyl)-5-(*S)-(2-methyl-4-phenoxyphenyl)-4-oxo-4,5-dihydro-3H-1-thia-3,5,8-triazaacenaphthylene-2-carboxamide]	7.54
CNCC(=O)N[C@H]1CCC[C@H]1NC(=O)c1sc2nccc3c2c1NC(=O)N3c1ccc(Oc2ccccc2)cc1C (single isomer, unassigned) [Example 122, 5-(*S)-(2-Methyl-4-phenoxyphenyl)-N-((1R,2S)-2-(2-(methylamino)acetamido)cyclopentyl)-4-oxo-4,5-dihydro-3H-1-thia-3,5,8-triazaacenaphthylene-2-carboxamide]	7.18
Cc1cc(Oc2ccccc2)ccc1N1C(=O)Nc2c(C(=O)N[C@H]3CCC[C@@H]3NC(=O)CN(C)C)sc3nccc1c23 (single isomer, unassigned) [Example 123, N-((1S,2S)-2-(2-(Dimethylamino)acetamido)cyclopentyl)-5-(*S)-(2-methyl-4-phenoxyphenyl)-4-oxo-4,5-dihydro-3H-1-thia-3,5,8-triazaacenaphthylene-2-carboxamide]	7.07
CNCC(=O)N[C@H]1CCCC[C@H]1NC(=O)c1sc2nccc3c2c1NC(=O)N3c1ccc(Oc2ccccc2)cc1C (single isomer, unassigned) [Example 125, 5-(*S)-(2-Methyl-4-phenoxyphenyl)-N-((1R,2S)-2-(2-(methylamino)acetamido)cyclohexyl)-4-oxo-4,5-dihydro-3H-1-thia-3,5,8-triazaacenaphthylene-2-carboxamide]	7.11
Cc1cc(Oc2ccccc2)ccc1N1C(=O)Nc2c(C(=O)N[C@@H]3CCC[C@@H]3NC(=O)CN(C)C)sc3nccc1c23 (single isomer, unassigned) [Example 128, N-((1R,2S)-2-(2-(Dimethylamino)acetamido)cyclopentyl)-5-(*S)-(2-methyl-4-phenoxyphenyl)-4-oxo-4,5-dihydro-3H-1-thia-3,5,8-triazaacenaphthylene-2-carboxamide]	7.10
Cc1cc(Oc2ccccc2)ccc1N1C(=O)Nc2c(C(=O)N[C@@H]3CCCC[C@@H]3NC(=O)CN)sc3nccc1c23 (single isomer, unassigned) [Example 129, N-((1R,2S)-2-(2-Aminoacetamido)cyclohexyl)-5-(*S)-(2-methyl-4-phenoxyphenyl)-4-oxo-4,5-dihydro-3H-1-thia-3,5,8-triazaacenaphthylene-2-carboxamide]	7.39
Cc1cc(Oc2ccccc2)ccc1N1C(=O)Nc2c(C(=O)N[C@H]3CCC[C@@H]3NC(=O)CN)sc3nccc1c23 (single isomer, unassigned) [Example 130, N-((1S,2S)-2-(2-Aminoacetamido)cyclopentyl)-5-(*S)-(2-methyl-4-phenoxyphenyl)-4-oxo-4,5-dihydro-3H-1-thia-3,5,8-triazaacenaphthylene-2-carboxamide]	7.17

Source: patent US10934310B2, “Inhibitors of Bruton's tyrosine kinase and method of their use” (JANSSEN PHARMACEUTICA NV, priority 2015, dated 2021)
